{"source": "patent US9840482B2", "about": "“Sulfonamide derivatives and pharmaceutical applications thereof” (Sunshine Lake Pharma Co., Ltd., priority 2014, dated 2017)", "data": [{"biological_target": "T1, human 5-HT6 receptor (Homo sapiens, UniProt P50406)", "T1 construct": "expressed in transfected cells; host or cells: CHO cells (membrane preparation)", "assay": "Radioligand binding assay ([3H]LSD) on membranes of CHO cells expressing human 5-HT6 receptor", "details": "human 5-HT6 receptor expressed in CHO cell, 2 nM [3H]LSD, 37° C., 120 min", "description": "The binding affinities of the compounds of this invention to human 5-HT6 receptor expressed in CHO cell were evaluated by radioligand binding assay in this example. Briefly, for each compound of the present invention, the binding affinity thereof was tested through the following steps:\n32 μg membrane proteins of CHO cell expressing human 5-HT6 receptor, 2 nM of radioactive marker [3H]LSD, a compound of the present invention having different test concentrations, 100 μM 5-HT (5-HT was used to eliminate nonspecific binding sites) and a buffer solution were mixed uniformly. Then the resulting mixture was incubated at 37° C. for 120 min, in which the buffer solution was comprised of 50 mM Tris-HC1 (pH 7.4), 10 mM MgCl2, 0.5 mM EDTA, 10 μM pargyline and 20 mg/L protease inhibitor.\nAfter incubation, the resluting mixture was filtered by a fiberglass filter in vacuo (GF/B, Packard), and the filter membrane of the fiberglass filter was preimpregnated with 0.3% PEI before the filtering and washed with 50 mM of Tris-HC1 for several times after the filtering. After the filter membrane was dried, and the radioactivity of filter membrane was determined by liquid scintillation counting by using a scintillometer (Topcount, Packard). The reference standard was 5-HT, and IC50 values were calculated by competitive inhibition curves plotted based on several inhibition ratios and the corresponding compound concentrations.", "units": {"IC50": "nM"}, "values": [{"smiles": "COc1ccc(S(=O)(=O)NCCc2cccc3ccccc23)cc1N1CCNCC1", "note": "[Example 1]", "IC50": 2.7}, {"smiles": "COc1ccc(S(=O)(=O)NCCc2cccc3ccccc23)cc1N1CCN(C)CC1", "note": "[Example 2]", "IC50": 0.92}, {"smiles": "COc1ccc(S(=O)(=O)NCCc2cccc3c(OC)cccc23)cc1N1CCNCC1", "note": "[Example 3, 4-Methoxy-N-(2-(5-methoxynaphthalen-1-yl)ethyl)-3-(piperazin-1-yl) benzenesulfonamide]", "IC50": 31}, {"smiles": "COc1ccc(S(=O)(=O)NCCc2cccc3c(OC)cccc23)cc1N1CCN(C)CC1", "note": "[Example 4, 4-Methoxy-N-(2-(5-methoxynaphthalen-1-yl)ethyl)-3-(4-methylpiperazin-1-yl) benzenesulfonamide]", "IC50": 11}, {"smiles": "COc1ccc(S(=O)(=O)NCCc2cccc3cc(F)ccc23)cc1N1CCNCC1", "note": "[Example 5]", "IC50": 4.1}, {"smiles": "COc1ccc(S(=O)(=O)NCCc2cccc3cc(F)ccc23)cc1N1CCN(C)CC1", "note": "[Example 6]", "IC50": 1.3}, {"smiles": "COc1ccc2cccc(CCNS(=O)(=O)c3ccc(OC)c(N4CCNCC4)c3)c2c1", "note": "[Example 7, 4-Methoxy-N-(2-(7-methoxynaphthalen-1-yl)ethyl)-3-(piperazin-1-yl) benzenesulfonamide]", "IC50": 1}, {"smiles": "COc1ccc2cccc(CCNS(=O)(=O)c3ccc(OC)c(N4CCN(C)CC4)c3)c2c1", "note": "[Example 8]", "IC50": 0.5}, {"smiles": "COc1ccc(S(=O)(=O)NCCc2cccc3ccc(F)cc23)cc1N1CCNCC1", "note": "[Example 9]", "IC50": 0.69}, {"smiles": "COc1ccc(S(=O)(=O)NCCc2cccc3ccc(F)cc23)cc1N1CCN(C)CC1", "note": "[Example 10]", "IC50": 0.28}, {"smiles": "COc1ccc(S(=O)(=O)NCCc2cccc3ccc(Br)cc23)cc1N1CCNCC1", "note": "[Example 11, N-(2-(7-Bromonaphthalen-1-yl)ethyl)-4-methoxy-3-(piperazin-1-yl) benzenesulfonamide]", "IC50": 2.1}, {"smiles": "COc1ccc(S(=O)(=O)NCCc2cccc3ccc(Br)cc23)cc1N1CCN(C)CC1", "note": "[Example 12, N-(2-(7-Bromonaphthalen-1-yl)ethyl)-4-methoxy-3-(4-methylpiperazin-1-yl) benzene sulfonamide]", "IC50": 0.17}, {"smiles": "COc1ccc(S(=O)(=O)NCC(C)(C)c2cccc3ccccc23)cc1N1CCNCC1", "note": "[Example 13, 4-Methoxy-N-(2-methyl-2-(naphthalen-1-yl)propyl)-3-(piperazin-1-yl) benzenesulfonamide]", "IC50": 1.3}, {"smiles": "COc1ccc(S(=O)(=O)NCC(C)(C)c2cccc3cc(F)ccc23)cc1N1CCNCC1", "note": "[Example 15, N-(2-(6-fluoronaphthalen-1-yl)-2-methylpropyl)-4-methoxy-3-(piperazin-1-yl)benzene sulfonamide]", "IC50": 11}, {"smiles": "COc1ccc2cccc(C(C)(C)CNS(=O)(=O)c3ccc(OC)c(N4CCNCC4)c3)c2c1", "note": "[Example 17, 4-Methoxy-N-(2-(7-methoxynaphthalen-1-yl)-2-methylpropyl)-3-(piperazin-1-yl)benzene sulfonamide]", "IC50": 1.1}, {"smiles": "COc1ccc2cccc(C(C)(C)CNS(=O)(=O)c3ccc(OC)c(N4CCN(C)CC4)c3)c2c1", "note": "[Example 18, 4-Methoxy-N-(2-(7-methoxynaphthalen-1-yl)-2-methylpropyl)-3-(4-methylpiperazin-1-yl) benzenesulfonamide]", "IC50": 1.4}, {"smiles": "COc1ccc(S(=O)(=O)NCC(C)(C)c2cccc3ccc(Br)cc23)cc1N1CCNCC1", "note": "[Example 21, N-(2-(7-Bromonaphthalen-1-yl)-2-methylpropyl)-4-methoxy-3-(piperazin-1-yl) benzenesulfonamide]", "IC50": 1.7}, {"smiles": "COc1ccc(S(=O)(=O)NCC(C)(C)c2cccc3ccc(Br)cc23)cc1N1CCN(C)CC1", "note": "[Example 22, N-(2-(7-Bromonaphthalen-1-yl)-2-methylpropyl)-4-methoxy-3-(4-methylpiperazin-1-yl) benzenesulfonamide]", "IC50": 0.31}, {"smiles": "COc1ccc(S(=O)(=O)NCC2(c3cccc4ccccc34)CC2)cc1N1CCNCC1", "note": "[Example 23, 4-Methoxy-N-((1-(naphthalen-1-yl)cyclopropyl)methyl)-3-(piperazin-1-yl) benzenesulfonamide]", "IC50": 3.7}, {"smiles": "COc1ccc(S(=O)(=O)NCC2(c3cccc4ccccc34)CC2)cc1N1CCN(C)CC1", "note": "[Example 24, 4-Methoxy-3-(4-methylpiperazin-1-yl)-N-((1-(naphthalen-1-yl)cyclopropyl)methyl) benzenesulfonamide]", "IC50": 2}, {"smiles": "COc1ccc(S(=O)(=O)NCC2(c3cccc4cc(F)ccc34)CC2)cc1N1CCNCC1", "note": "[Example 25, N-((1-(6-fFluoronaphthalen-1-yl)cyclopropyl)methyl)-4-methoxy-3-(piperazin-1-yl) benzenesulfonamide]", "IC50": 16}, {"smiles": "COc1ccc(S(=O)(=O)NCC2(c3cccc4cc(F)ccc34)CC2)cc1N1CCN(C)CC1", "note": "[Example 26, N-((1-(6-Fluoronaphthalen-1-yl)cyclopropyl)methyl)-4-methoxy-3-(4-methylpiperazin-1-yl) benzenesulfonamide]", "IC50": 3.2}, {"smiles": "COc1ccc2cccc(C3(CNS(=O)(=O)c4ccc(OC)c(N5CCNCC5)c4)CC3)c2c1", "note": "[Example 27, 4-Methoxy-N-((1-(7-methoxynaphthalen-1-v1)cyclopropyl)methyl)-3-(piperazin-1-yl) benzenesulfonamide]", "IC50": 5}, {"smiles": "COc1ccc2cccc(C3(CNS(=O)(=O)c4ccc(OC)c(N5CCN(C)CC5)c4)CC3)c2c1", "note": "[Example 28, 4-Methoxy-N-((1-(7-methoxynaphthalen-1-yl)cyclopropyl)methyl)-3-(4-methylpiperazin-1-yl) benzenesulfonamide]", "IC50": 2.1}, {"smiles": "COc1ccc(S(=O)(=O)NCC2(c3cccc4ccc(F)cc34)CC2)cc1N1CCNCC1", "note": "[Example 29]", "IC50": 2.3}, {"smiles": "COc1ccc(S(=O)(=O)NCC2(c3cccc4ccc(Br)cc34)CC2)cc1N1CCNCC1", "note": "[Example 31]", "IC50": 1.2}, {"smiles": "COc1ccc(S(=O)(=O)NCCc2ccc(OC)c3ccccc23)cc1N1CCNCC1", "note": "[Example 33, 4-Methoxy-N-(2-(4-methoxynaphthalen-1-yl)ethyl)-3-(piperazin-1-yl) benzenesulfonamide]", "IC50": 5.5}, {"smiles": "COc1ccc(S(=O)(=O)NCCc2ccc(OC)c3ccccc23)cc1N1CCN(C)CC1", "note": "[Example 34]", "IC50": 2.6}, {"smiles": "COc1ccc(S(=O)(=O)NCCc2ccc(F)c3ccccc23)cc1N1CCNCC1", "note": "[Example 35]", "IC50": 1.6}, {"smiles": "COc1ccc(S(=O)(=O)NCCc2ccc(F)c3ccccc23)cc1N1CCN(C)CC1", "note": "[Example 36]", "IC50": 0.46}]}, {"system": "not listed separately", "assay": "Pharmacokinetic evaluation after intravenous or gavage administration to dogs", "type": "in vivo, Beagle dogs", "details": "by gavage, 5 mg/kg", "description": "The LC/MS/MS system for the analysis comprised an Agilent 1200 Series Vacuum Degasser, binary syringe pumps, a well-plate autosampler, a column oven and an Agilent G6430A Triple Quadrupole Mass Spectrometer equiped with an electrospray ionization (ESI) source, Quantitative analysis was performed in the MRM mode and the conversion parameters of MRM were listed in Table 3:\nAnalysis was performed on waters)(Bridge C18 (2.1×50 mm, […] column, and 5 μL of sample was injected). Conditions of the analysis comprised: a mobile phase consisted of mobile phase A (water, 2 mM ammonium formate and 0.1% formic acid) and mobile phase B (methanol, 2 mM ammonium formate and 0.1% formic acid), the flow rate was 0.4 mL/min, and the conditions of gradient elution were listed in Table 4: […]\nIn vivo pharmacokinetic assays in dogs of the compounds disclosed herein were performed by the following steps.\nExperiments were divided into two groups, one group was performed through intravenous drug delivery, and the other group was performed by gavage. The compounds disclosed herein were administered in form of a saline solution containing 5% DMSO, 5% Kolliphor HS 15, 2% (2% HC1) and 88% Saline, or the solution containing 10% DMSO, 10% Kolliphor HS 15 and 80% physiological saline. […]", "values": [{"smiles": "COc1ccc(S(=O)(=O)NCC(C)(C)c2cccc3ccccc23)cc1N1CCNCC1", "note": "[Example 13, 4-Methoxy-N-(2-methyl-2-(naphthalen-1-yl)propyl)-3-(piperazin-1-yl) benzenesulfonamide]", "area under the plasma concentration vs time curve (AUClast)": "more than 15000 h*ng/mL"}]}]}
